Literature values as cited in PubChem BioAssay AID1259410 (Chemical Carcinogenesis Research Information System (CCRIS), 2018).

System: rodent tumor promotion studies, tumor incidence
Assay: CCRIS tumor promotion studies

Clc1ccc(C(c2ccc(Cl)cc2)C(Cl)(Cl)Cl)cc1
outcome (Carcinogen: 2-(ACETYLAMINO)FLUORINE, Doses [Carcinogen]: DIET, Doses [Promoter]: IN DIET, Route [Carcinogen]: ORAL, Route [Promoter]: ORAL, Species: RAT, Strain/Sex: MALE): liver
outcome (Carcinogen: N-METHYL-N'-NITRO-N-NITROSOGUANIDINE, 70-25-7, Doses [Carcinogen]: 50 PPM FOR 60 MIN, Doses [Promoter]: 0, 100 PPM IN DIET BEGINNING 14 WK POST CARCINOGEN DOSE (STUDY DURATION: 12 MO), Route [Carcinogen]: IMMERSION, Route [Promoter]: ORAL, Species: FISH, Strain/Sex: RAINBOW TROUT): liver: tumor
outcome (Carcinogen: N-NITROSODIETHYLAMINE, 55-18-5, Doses [Carcinogen]: 90 MG/KG BW ONCE, Doses [Promoter]: 0, 300 PPM IN DIET FOR 53 WK BEGINNING 2 WK POST CARCINOGEN DOSE (STUDY DURATION: 55 WK), Route [Carcinogen]: INTRAPERITONEAL, Route [Promoter]: ORAL, Species: MOUSE, Strain/Sex: D2B6F1/MALE): liver: hepatocellular adenoma, hepatocellular carcinoma
outcome (Doses [Carcinogen]: 0.5 PPM FOR 30 MIN, Doses [Promoter]: 0, 100 PPM IN DIET BEGINNING 14 WK POST CARCINOGEN DOSE (STUDY DURATION: 12 MO), Route [Carcinogen]: IMMERSION, Route [Promoter]: ORAL, Species: FISH, Strain/Sex: RAINBOW TROUT): liver: tumor
outcome (Doses [Carcinogen]: 50 UG 2/WK FOR WK 1-4 OF STUDY THEN 75 UG 2/WK FOR WK 5-8, Doses [Promoter]: 0, 7.5 MG 2/WK FOR 14 WK BEGINNING 1 WK POST CARCINOGEN TREATMENT (STUDY DURATION: 1 YR), Route [Carcinogen]: GAVAGE, Route [Promoter]: GAVAGE, Species: RAT, Strain/Sex: WISTAR/MALE): liver: carcinoma
outcome (Doses [Carcinogen]: 50 UG 2/WK FOR WK 1-4 OF STUDY THEN 75 UG 2/WK FOR WK 5-8, Doses [Promoter]: 0, 7.5 MG 2/WK FOR 14 WK BEGINNING 3 WK POST CARCINOGEN TREATMENT (STUDY DURATION: 1 YR), Route [Carcinogen]: GAVAGE, Route [Promoter]: GAVAGE, Species: RAT, Strain/Sex: WISTAR/MALE): liver: carcinoma

CCCCCCCCCCO
outcome (Carcinogen: 7,12-DIMETHYLBENZ(A)ANTHRACENE, Doses [Carcinogen]: TOP, Route [Carcinogen]: DERMAL, Route [Promoter]: DERMAL, Species: MOUSE, Strain/Sex: FEMALE): integumentary system (skin)

CCCCCCC(=O)C/C=C/CCCCCCCC(=O)OC
outcome (Carcinogen: 4-NITROQUINOLINE-1-OXIDE, Doses [Carcinogen]: IG, Doses [Promoter]: IN DIET, Route [Carcinogen]: GAVAGE, Route [Promoter]: ORAL, Species: MOUSE, Strain/Sex: MALE,FEMALE): forestomach
outcome (Carcinogen: 7,12-DIMETHYLBENZ(A)ANTHRACENE, Doses [Carcinogen]: TOP, Route [Carcinogen]: DERMAL, Route [Promoter]: DERMAL, Species: MOUSE, Strain/Sex: MALE,FEMALE): integumentary system (skin)

CCOC(=O)C(C)(C)Oc1ccc(Cl)cc1
outcome (Carcinogen: DIETHYLNITROSAMINE [55-18-5], Doses [Carcinogen]: 200 MG/KG BW ONCE (STUDY DURATION: 24 WK), Doses [Promoter]: 0, 3000 PPM IN DIET FOR 22 WK BEGINNING 2 WK POST CARCINOGEN DOSE AND 1 WK PRIOR TO 2/3 PARTIAL HEPATECTOMY (STUDY DURAT, Route [Carcinogen]: INTRAPERITONEAL, Route [Promoter]: ORAL, Species: RAT, Strain/Sex: F344/MALE): liver: hepatocellular adenoma
outcome (Carcinogen: DIETHYLNITROSAMINE [55-18-5], Doses [Carcinogen]: 200 MG/KG BW ONCE (STUDY DURATION: 48 WK), Doses [Promoter]: 0, 3000 PPM IN DIET FOR 46 WK BEGINNING 2 WK POST CARCINOGEN DOSE AND 1 WK PRIOR TO 2/3 PARTIAL HEPATECTOMY (STUDY DURAT, Route [Carcinogen]: INTRAPERITONEAL, Route [Promoter]: ORAL, Species: RAT, Strain/Sex: F344/MALE): liver: hepatocellular adenoma
outcome (Carcinogen: DIETHYLNITROSAMINE [55-18-5], Doses [Carcinogen]: 200 MG/KG BW ONCE (STUDY DURATION: 52 WK), Doses [Promoter]: 0, 3000 PPM IN DIET FOR 46 WK BEGINNING 2 WK POST CARCINOGEN DOSE AND 1 WK PRIOR TO 2/3 PARTIAL HEPATECTOMY (STUDY DURAT, Route [Carcinogen]: INTRAPERITONEAL, Route [Promoter]: ORAL, Species: RAT, Strain/Sex: F344/MALE): liver: hepatocellular adenoma
outcome (Carcinogen: DIETHYLNITROSAMINE, 55-18-5, Doses [Carcinogen]: 10 MG/KG IN SALINE ONCE 24 HR AFTER RECEIVING 70% PARTIAL HEPATECTOMIES, Doses [Promoter]: 0, 0.01% IN DIET FOR DURATION OF STUDY BEGINNING 2 WK POST CARCINOGEN DOSE (STUDY DURATION: 18 MO), Route [Carcinogen]: GAVAGE, Route [Promoter]: ORAL, Species: RAT, Strain/Sex: SPRAGUE-DAWLEY/FEMALE): liver: hepatocellular carcinoma
outcome (Carcinogen: DIETHYLNITROSAMINE, 55-18-5, Doses [Carcinogen]: 100 PPM IN DRINKING WATER FOR 2 WK, Doses [Promoter]: 0, 0.5% IN DIET BEGINNING 1 WK POST LAST CARCINOGEN DOSE AND CONTINUING FOR DURATION OF STUDY (STUDY DURATION: 32 WK), Route [Carcinogen]: ORAL, Route [Promoter]: ORAL, Species: RAT, Strain/Sex: WISTAR/MALE): liver: hepatocellular carcinoma
outcome (Carcinogen: DIETHYLNITROSAMINE, 55-18-5, Doses [Carcinogen]: 150 MG/KG BW ONCE, Doses [Promoter]: 0, 0.1% IN DIET FOR 37 WK BEGINNING 2 WK POST CARCINOGEN TREATMENT (STUDY DURATION: 39 WK), Route [Carcinogen]: INTRAPERITONEAL, Route [Promoter]: ORAL, Species: RAT, Strain/Sex: F344/MALE): liver: adenoma

OO
outcome (Carcinogen: N-METHYL-N'-NITRO-N-NITROSOGUANIDINE, 70-25-7, Doses [Carcinogen]: 25 PPM IN WATER FOR 30 MIN, Doses [Promoter]: 0, 600, 3000 PPM IN DIETS CONTAINING HIGH (1000 PPM) LEVELS OF VITAMIN E FOR 8 MO (STUDY DURATION: 10 MO), Doses [Promoter]: 0, 600, 3000 PPM IN DIETS CONTAINING HIGH (1000 PPM) LEVELS OF VITAMIN E FOR 8 MO (STUDY DURATION: 10 MO), Route [Carcinogen]: IMMERSION, Route [Promoter]: ORAL, Species: FISH, Strain/Sex: RAINBOW TROUT/MALE, FEMALE): liver: tumor
outcome (Carcinogen: N-METHYL-N'-NITRO-N-NITROSOGUANIDINE, 70-25-7, Doses [Carcinogen]: 25 PPM IN WATER FOR 30 MIN, Doses [Promoter]: 0, 600 PPM IN DIETS CONTAINING LOW (20 PPM) LEVELS OF VITAMIN E FOR 8 MO (STUDY DURATION: 10 MO), Route [Carcinogen]: IMMERSION, Route [Promoter]: ORAL, Species: FISH, Strain/Sex: RAINBOW TROUT/MALE, FEMALE): liver: tumor

CC(CCC(=O)NCCS(=O)(=O)O)[C@H]1CC[C@H]2[C@@H]3CC[C@@H]4C[C@H](O)CC[C@]4(C)[C@H]3C[C@H](O)[C@]12C (some centres undefined)
outcome (Doses [Carcinogen]: IR, Route [Carcinogen]: RECTAL, Route [Promoter]: RECTAL, Species: RAT, Strain/Sex: MALE,FEMALE): colon

C[C@H](N)C(=O)NCC(=O)N[C@H]1CSSC[C@@H](C(=O)O)NC(=O)[C@H](CO)NC(=O)[C@H]([C@@H](C)O)NC(=O)[C@H](Cc2ccccc2)NC(=O)[C@H]([C@@H](C)O)NC(=O)[C@H](CCCCN)NC(=O)[C@H](Cc2c[nH]c3ccccc23)NC(=O)[C@H](Cc2ccccc2)NC(=O)[C@H](Cc2ccccc2)NC(=O)[C@H](CC(N)=O)NC(=O)[C@H](CCCCN)NC1=O
outcome (Carcinogen: N-METHYL-N'-NITRO-N-NITROSOGUANIDINE, 70-25-7, Doses [Carcinogen]: 25 UG/ML DRINKING WATER FOR 25 WK, Doses [Promoter]: 0, 100, 200 UG/KG IN OLIVE OIL 1/2 D BEGINNING POST CARCINOGEN DOSE FOR DURATION OF STUDY (STUDY DURATION: 52 WK), Doses [Promoter]: 0, 100, 200 UG/KG IN OLIVE OIL 1/2 D BEGINNING POST CARCINOGEN DOSE FOR DURATION OF STUDY (STUDY DURATION: 52 WK), Route [Carcinogen]: ORAL, Route [Promoter]: SUBCUTANEOUS, Species: RAT, Strain/Sex: WISTAR/MALE): glandular stomach: adenocarcinoma
